# According to patent publication US11548888B2, “KRas G12C inhibitors” (Mirati Therapeutics, Inc., priority 2019, dated 2023):
# Biological target: T1, KRas G12C (Homo sapiens, UniProt P01116, G12C)
# T1 construct: NCI-H358 cells (ATCC CRL-5807) express KRas G12C
# Assay: Inhibition of KRas G12C-dependent cell growth: Phospho-ERK in NCI-H358 cells
# Assay type: cell-based
# Details: NCI-H358 cells expressing KRas G12C; Phospho-ERK (Thr202/Tyr204) normalized to GAPDH; 3 hours compound; 4 parameter fit
# In short: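 NCI-H358 cells (KRas G12C) exposed to compounds for 3 h, 0.5% DMSO final. Fixed cells immunostained for pERK(Thr202/Tyr204) and GAPDH with infrared secondary antibodies. pERK normalized to GAPDH, expressed as percent of DMSO control; IC50 from 4-parameter dose-response fit.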
# T1 sequence (P01116 1-188 isoform P01116-2 G12C): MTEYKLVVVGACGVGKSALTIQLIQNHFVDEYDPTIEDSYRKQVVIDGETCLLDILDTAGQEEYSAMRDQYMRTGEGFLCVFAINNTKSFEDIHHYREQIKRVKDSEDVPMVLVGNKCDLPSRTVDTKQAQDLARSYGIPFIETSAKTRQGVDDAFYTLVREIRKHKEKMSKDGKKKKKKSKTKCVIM
row,SMILES,IC50 [nM]
1,"COC/C=C/C(=O)N1CCN(c2nc(OC[C@@H]3C[C@@H](F)CN3C)nc3c(F)c(-c4cccc5cccc(C)c45)ncc23)C[C@@H]1CC#N [Example 49, 2-[(2S)-4-[8-fluoro-2-[[(2S,4R)-4-fluoro-1-methyl-pyrrolidin-2-yl]methoxy]-7-(8-methyl-1-naphthyl)pyrido[4,3-d]pyrimidin-4-yl]-1-[(E)-4-methoxybut-2-enoyl]piperazin-2-yl]acetonitrile]",62
2,"C=CC(=O)N1CCN(c2nc(OCCN3CCOCC3)nc3cc(-c4cc(O)cc5ccccc45)ncc23)CC1 [Example 4, 1-(4-(7-(3-hydroxynaphthalen-1-yl)-2-(2-morpholinoethoxy)pyrido[4,3-d]pyrimidin-4-yl)piperazin-1-yl)prop-2-en-1-one]",3430
3,"N#CC[C@H]1CN(c2nc(OCCCN3C[C@@H]4C[C@H]3CO4)nc3c(F)c(-c4cccc5cccc(Cl)c45)ncc23)CCN1C(=O)/C=C/CF [Example 31, 2-[(2S)-4-[7-(8-chloro-1-naphthyl)-8-fluoro-2-[3-[(1S,4S)-2-oxa-5-azabicyclo[2.2.1]heptan-5-yl]propoxy]pyrido[4,3-d]pyrimidin-4-yl]-1-[(E)-4-fluorobut-2-enoyl]piperazin-2-yl]acetonitrile]",33
4,C=C(F)C(=O)N1CCN(c2nc(OCCNS(C)(=O)=O)nc3c(F)c(-c4cccc5ccc(F)c(Cl)c45)ncc23)C[C@@H]1CC#N [Example 120],976
5,"C=C(F)C(=O)N1CCN(c2nc(OCCCN3C[C@@H]4C[C@H]3CO4)nc3c(F)c(-c4cncc5cccc(C)c45)ncc23)C[C@@H]1CC#N [Example 38, 2-[(2S)-4-[8-fluoro-7-(5-methyl-4-isoquinolyl)-2-[3-[(1S,4S)-2-oxa-5-azabicyclo[2.2.1]heptan-5-yl]propoxy]pyrido[4,3-d]pyrimidin-4-yl]-1-(2-fluoroprop-2-enoyl)piperazin-2-yl]acetonitrile]",338
6,C=C(F)C(=O)N1CCN(c2nc(OC3CCN(C4CCOCC4)CC3)nc3c(F)c(-c4cccc5cccc(Cl)c45)ncc23)C[C@@H]1CC#N [Example 64],376
7,C=C(F)C(=O)N1CCN(c2nc(OC[C@@H]3CCCN3C)nc3c(F)c(-c4cccc5cnn(C)c45)ncc23)C[C@@H]1CC#N [Example 84],765
8,"CO[C@@H]1C[C@@H](COc2nc(N3CCN(C(=O)/C=C/CF)[C@@H](CC#N)C3)c3cnc(-c4cncc5cccc(C)c45)c(F)c3n2)N(C)C1 [Example 36, 2-[(2S)-1-[(E)-4-fluorobut-2-enoyl]-4-[8-fluoro-2-[[(2S,4R)-4-methoxy-1-methyl-pyrrolidin-2-yl]methoxy]-7-(5-methyl-4-isoquinolyl)pyrido[4,3-d]pyrimidin-4-yl]piperazin-2-yl]acetonitrile]",44
9,C=CC(=O)N1CC2CC1CN2c1nc(OC[C@@H]2CCCN2C)nc2c(F)c(-c3cncc4cccc(Cl)c34)ncc12 (stereo partly drawn) [Example 98],10000
10,"C=C(F)C(=O)N1CCN(c2nc(OC[C@@H]3CC(F)(F)CN3C)nc3c(F)c(-c4cncc5cccc(C)c45)ncc23)C[C@@H]1CC#N [Example 45, 2-((S)-4-(2-(((S)-4,4-difluoro-1-methylpyrrolidin-2-yl)methoxy)-8-fluoro-7-(5-methylisoquinolin-4-yl)pyrido[4,3-d]pyrimidin-4-yl)-1-(2-fluoroacryloyl)piperazin-2-yl)acetonitrile]",205
11,"C=C(F)C(=O)N1CCN(c2nc(OC[C@@H]3CCCN3C)nc3c(F)c(-c4cccc5cccc(C)c45)ncc23)C[C@@H]1CC#N [Example 11, 2-[(2S)-4-[8-fluoro-7-(8-methyl-1-naphthyl)-2-[[(2S)-1-methylpyrrolidin-2-yl]methoxy]pyrido[4,3-d]pyrimidin-4-yl]-1-(2-fluoroprop-2-enoyl)piperazin-2-yl]acetonitrile]",84
12,C=C(F)C(=O)N1CCN(c2nc(OCC34CCCN3CCC4)nc3c(F)c(-c4cccc5cccc(Cl)c45)ncc23)C[C@@H]1CC#N [Example 77],2
13,C=C(F)C(=O)N1CCN(c2nc(O[C@H](C)CN(C)C)nc3c(F)c(-c4cccc5cccc(Cl)c45)ncc23)C[C@@H]1CC#N [Example 73],593

# Results, then the compound that gave them:
row,IC50 [nM],SMILES
1,782,C=CC(=O)N1CC[C@@H]2[C@H]1CN2c1ncnc2c(F)c(-c3cccc4ccc(F)c(C)c34)ncc12 [Example 285]
2,31,"C#Cc1cccc2cc(O)cc(-c3ncc4c(N5CCN(C(=O)C=C)CC5)ncnc4c3F)c12 [Example 215, 1-(4-(7-(8-ethynyl-3-hydroxynaphthalen-1-yl)-8-fluoropyrido[4,3-d]pyrimidin-4-yl)piperazin-1-yl)prop-2-en-1-one]"
3,2340,C=CC(=O)N1CC[C@@H]2[C@H]1CN2c1ncnc2c(F)c(-c3c(O)ccc4ccccc34)ncc12 [Example 281]
4,10000,C=CC(=O)N1CCN(c2ncnc3c(F)c(-c4cccc5cc(F)ccc45)ncc23)CC1 [Example 258]
5,10000,C=CC(=O)N1CCN(c2ncnc3c(F)c(-c4cccc5cc(Cl)ccc45)ncc23)CC1 [Example 257]
6,1850,C=C(F)C(=O)N1CCN(c2nc(OCCNC(=O)C(C)C)nc3c(F)c(-c4cccc5ccc(F)c(Cl)c45)ncc23)C[C@@H]1CC#N [Example 230]
7,68,C=C(F)C(=O)N1CCN(c2nc(OC[C@H]3CN(C)CCO3)nc3c(F)c(-c4cccc5ccc(F)c(Cl)c45)ncc23)C[C@@H]1CC#N [Example 158]
8,145,C=C(F)C(=O)N1CCN(c2nc(OCCc3nccn3C)nc3c(F)c(-c4cccc5ccc(F)c(Cl)c45)ncc23)C[C@@H]1CC#N [Example 132]
9,235,"C#Cc1c(F)ccc2cccc(-c3ncc4c(N5C[C@@H]6[C@H]5CCN6C(=O)/C=C/C(F)F)ncnc4c3F)c12 [Example 300, (E)-1-((1R,5R)-6-(7-(8-ethynyl-7-fluoronaphthalen-1-yl)-8-fluoropyrido[4,3-d]pyrimidin-4-yl)-2,6-diazabicyclo[3.2.0]heptan-2-yl)-4,4-difluorobut-2-en-1-one]"
10,1140,O=C(/C=C/C(F)(F)F)N1CC[C@@H]2[C@H]1CN2c1ncnc2c(F)c(-c3cccc4ccc(F)c(Cl)c34)ncc12 [Example 263]
11,10000,C=CC(=O)N1CCN(c2nc(OC[C@@H]3CCCN3C)nc3c(F)c(-c4ccccc4F)ncc23)CC1 [Example 184]
12,11,C=C(F)C(=O)N1CCN(c2nc(OCC3(C)CCN3C)nc3c(F)c(-c4cccc5ccc(F)c(Cl)c45)ncc23)C[C@@H]1CC#N (stereo partly drawn) [Example 161]
13,711,"C=CC(=O)N1CCN(c2ncnc3c(F)c(-c4cc(O)cc5ccccc45)ncc23)CC1 [Example 218, 1-(4-(8-fluoro-7-(3-hydroxynaphthalen-1-yl)pyrido[4,3-d]pyrimidin-4-yl)piperazin-1-yl)prop-2-en-1-one]"
14,6280,C=CC(=O)N1C[C@H](C)N(c2ncnc3c(F)c(-c4cccc5ccc(F)c(Cl)c45)ncc23)[C@@H](C)C1 [Example 148]
15,4,C=C(F)C(=O)N1CCN(c2nc(OCC34CCCN3C[C@H](F)C4)nc3c(F)c(-c4cccc5ccc(F)c(Cl)c45)ncc23)C[C@@H]1CC#N (stereo partly drawn) [Example 181]
16,10000,C=CC(=O)N1[C@@H](C)CN(c2ncnc3c(F)c(-c4cccc5ccc(F)c(Cl)c45)ncc23)C[C@@H]1C [Example 146]
17,38,C=C(F)C(=O)N1CCN(c2nc(OC[C@@H]3[C@@H]4C[C@@H]4CN3C)nc3c(F)c(-c4cccc5ccc(F)c(Cl)c45)ncc23)C[C@@H]1CC#N [Example 192]
